From patent US6355799B1, “Substituted benzene compounds, process for their preparation, and herbicidal and defoliant compositions containing them” (ISK Americas Incorporated, priority 1997, dated 2002)

Experiments:
Type in all cases: in vivo
[1] = system: green foxtail (Setaria viridis, SETVI); test: Pre-emerge test, greenhouse herbicide activity screening; conditions: rating scale 0-100, 14 days after application
Summary of the method: (§1)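 Applied at 15–1000 g ai/ha from acetone in 187 l/ha spray volume. Post-emergence applications included 0.25% v/v non-ionic surfactant and reached plants sown 8–21 days before. Pre-emergence applications were incorporated by surface watering. Efficacy or crop damage was rated on a 0–100 scale after 14 days.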

[2] = system: large crabgrass (Digitaria sanguinalis, DIGSA); test: as above; conditions: rating scale 0-100, 14 days after application
Summary of the method: as §1

[3] = system: sicklepod (Cassia obtusifolia, CASOB); test: as above; conditions: rating scale 0-100, 14 days after application
Summary of the method: as §1

[4] = system: ivyleaf morningglory (Ipomoea hederacea, IPOHE); test: as above; conditions: rating scale 0-100, 14 days after application
Summary of the method: as §1

[5] = system: lambsquarters (Chenopodium album, CHEAL); test: as above; conditions: rating scale 0-100, 14 days after application
Summary of the method: as §1

[6] = system: barnyardgrass (Echinochloa crus-galli, ECHCG); test: as above; conditions: rating scale 0-100, 14 days after application
Summary of the method: as §1

[7] = system: johnsongrass (Sorghum halepense, SORHA); test: as above; conditions: rating scale 0-100, 14 days after application
Summary of the method: as §1

[8] = system: velvetleaf (Abutilon theophrasti, ABUTH); test: as above; conditions: rating scale 0-100, 14 days after application
Summary of the method: as §1

[9] = system: redroot pigweed (Amaranthus retroflexus, AMARE); test: as above; conditions: rating scale 0-100, 14 days after application
Summary of the method: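 Sandy loam pots; pre-emerge: sown 1 d pre-spray, surface-watered after, then bottom-watered. Post-emerge: sown 8–21 d before, 2–3 leaf stage, + 0.25% v/v NIS, bottom-watered. Acetone, 187 l/ha track spray, 15–1000 g ai/ha. 0–100 injury score, day 14.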

[10] = system: field corn (Zea mays L., var. Dekalb 535, CORN); test: Pre-emerge test, crop safety; conditions: rating scale 0-100, 14 days after application
Summary of the method: (§2)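 Plants grown in 10 cm pots of sandy loam mix received acetone-dissolved compounds through a moving flat-fan nozzle. Doses ranged from 15 to 1000 g ai/ha. Pre-emerge pots were seeded one day earlier, post-emerge pots 8–21 days earlier. Fourteen days on, each pot was graded 0–100 for damage.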

[11] = system: upland rice (Oryza sp., var. Tebonnet, RICE); test: Pre-emerge test, crop safety; conditions: rating scale 0-100, 14 days after application
Summary of the method: as §2

[12] = system: green foxtail (Setaria viridis, SETVI); test: Post-emerge test, greenhouse herbicide activity screening; conditions: rating scale 0-100 (0 no damage, 100 complete death), 14 days after application
Summary of the method: (§3)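 Herbicidal damage is scored 0 (none) to 100 (complete plant death) two weeks after a simulated field spray. Rates span 15–1000 g ai/ha, delivered in acetone at 187 l/ha. For post-emergence treatments, plants have 2–3 leaves and the spray carries 0.25% v/v non-ionic surfactant.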

[13] = system: large crabgrass (Digitaria sanguinalis, DIGSA); test: as above; conditions: rating scale 0-100 (0 no damage, 100 complete death), 14 days after application
Summary of the method: as §3

[14] = system: sicklepod (Cassia obtusifolia, CASOB); test: as above; conditions: rating scale 0-100 (0 no damage, 100 complete death), 14 days after application
Summary of the method: as §3

[15] = system: ivyleaf morningglory (Ipomoea hederacea, IPOHE); test: as above; conditions: rating scale 0-100 (0 no damage, 100 complete death), 14 days after application
Summary of the method: as §3

[16] = system: lambsquarters (Chenopodium album, CHEAL); test: as above; conditions: rating scale 0-100 (0 no damage, 100 complete death), 14 days after application
Summary of the method: as §3

[17] = system: barnyardgrass (Echinochloa crus-galli, ECHCG); test: as above; conditions: rating scale 0-100 (0 no damage, 100 complete death), 14 days after application
Summary of the method: as §3

[18] = system: redroot pigweed (Amaranthus retroflexus, AMARE); test: as above; conditions: rating scale 0-100 (0 no damage, 100 complete death), 14 days after application
Summary of the method: as §3

[19] = system: johnsongrass (Sorghum halepense, SORHA); test: as above; conditions: rating scale 0-100 (0 no damage, 100 complete death), 14 days after application
Summary of the method: as §3

[20] = system: velvetleaf (Abutilon theophrasti, ABUTH); test: as above; conditions: rating scale 0-100 (0 no damage, 100 complete death), 14 days after application
Summary of the method: as §3

[21] = system: field corn (Zea mays L., var. Dekalb 535, CORN); test: Post-emerge test, crop safety; conditions: rating scale 0-100 (0 no damage, 100 complete death), 14 days after application
Summary of the method: as §1

[22] = system: upland rice (Oryza sp., var. Tebonnet, RICE); test: Post-emerge test, crop safety; conditions: rating scale 0-100 (0 no damage, 100 complete death), 14 days after application
Summary of the method: as §1

COc1c(Cl)cc(F)c(-n2c(=O)cc(C(F)(F)F)n(C)c2=O)c1CC(Cl)C(=O)OCCC(C)C (single isomer, unassigned) [14-16]
90: Pre-emerge herbicidal activity, phytotoxicity rating ABUTH ([8]; 250 g ai/ha) | Post-emerge Herbicidal Activity, phytotoxicity rating DIGSA ([13]; Rate 63 g ai/ha)
40: Post-emerge Herbicidal Activity, phytotoxicity rating CASOB ([14]; Rate 250 g ai/ha) | Post-emerge Herbicidal Activity, phytotoxicity rating IPOHE ([15]; Rate 63 g ai/ha)
20: Post-emerge Herbicidal Activity, phytotoxicity rating CASOB ([14]; Rate 63 g ai/ha)
95: Post-emerge Herbicidal Activity, phytotoxicity rating CHEAL ([16]; Rate 63 g ai/ha) | Post-emerge Herbicidal Activity, phytotoxicity rating ECHCG ([17]; Rate 63 g ai/ha)
0: Pre-emerge herbicidal activity, phytotoxicity rating SETVI ([1]; 63 g ai/ha) | Pre-emerge herbicidal activity, phytotoxicity rating SETVI ([1]; 250 g ai/ha) | Pre-emerge herbicidal activity, phytotoxicity rating CASOB ([3]; 63 g ai/ha) | Pre-emerge herbicidal activity, phytotoxicity rating CASOB ([3]; 250 g ai/ha) | Pre-emerge herbicidal activity, phytotoxicity rating IPOHE ([4]; 63 g ai/ha) | Pre-emerge herbicidal activity, phytotoxicity rating IPOHE ([4]; 250 g ai/ha) | Pre-emerge herbicidal activity, phytotoxicity rating ECHCG ([6]; 63 g ai/ha) | Pre-emerge herbicidal activity, phytotoxicity rating ECHCG ([6]; 250 g ai/ha) | Pre-emerge herbicidal activity, phytotoxicity rating SORHA ([7]; 63 g ai/ha) | Pre-emerge herbicidal activity, phytotoxicity rating SORHA ([7]; 250 g ai/ha) | Pre-emerge herbicidal activity, phytotoxicity rating ABUTH ([8]; 63 g ai/ha) | Pre-emerge phytotoxicity rating, crop damage CORN ([10]; 63 g ai/ha) | Pre-emerge phytotoxicity rating, crop damage CORN ([10]; 250 g ai/ha) | Pre-emerge phytotoxicity rating, crop damage RICE ([11]; 63 g ai/ha) | Pre-emerge phytotoxicity rating, crop damage RICE ([11]; 250 g ai/ha) | Post-emerge Herbicidal Activity, phytotoxicity rating SETVI ([12]; Rate 63 g ai/ha) | Post-emerge Herbicidal Activity, phytotoxicity rating SORHA ([19]; Rate 63 g ai/ha) | Post-emerge phytotoxicity rating CORN (crop damage) ([21]; Rate 63 g ai/ha) | Post-emerge phytotoxicity rating RICE (crop damage) ([22]; Rate 63 g ai/ha)
10: Post-emerge phytotoxicity rating RICE (crop damage) ([22]; Rate 250 g ai/ha)
30: Post-emerge Herbicidal Activity, phytotoxicity rating SETVI ([12]; Rate 250 g ai/ha) | Post-emerge Herbicidal Activity, phytotoxicity rating SORHA ([19]; Rate 250 g ai/ha)
70: Post-emerge phytotoxicity rating CORN (crop damage) ([21]; Rate 250 g ai/ha)
50: Pre-emerge herbicidal activity, phytotoxicity rating DIGSA ([2]; 63 g ai/ha) | Post-emerge Herbicidal Activity, phytotoxicity rating IPOHE ([15]; Rate 250 g ai/ha)
100: Pre-emerge herbicidal activity, phytotoxicity rating DIGSA ([2]; 250 g ai/ha) | Pre-emerge herbicidal activity, phytotoxicity rating CHEAL ([5]; 63 g ai/ha) | Pre-emerge herbicidal activity, phytotoxicity rating CHEAL ([5]; 250 g ai/ha) | Pre-emerge herbicidal activity, phytotoxicity rating AMARE ([9]; 63 g ai/ha) | Pre-emerge herbicidal activity, phytotoxicity rating AMARE ([9]; 250 g ai/ha) | Post-emerge Herbicidal Activity, phytotoxicity rating DIGSA ([13]; Rate 250 g ai/ha) | Post-emerge Herbicidal Activity, phytotoxicity rating CHEAL ([16]; Rate 250 g ai/ha) | Post-emerge Herbicidal Activity, phytotoxicity rating ECHCG ([17]; Rate 250 g ai/ha) | Post-emerge Herbicidal Activity, phytotoxicity rating AMARE ([18]; Rate 250 g ai/ha) | Post-emerge Herbicidal Activity, phytotoxicity rating ABUTH ([20]; Rate 250 g ai/ha)
60: Post-emerge Herbicidal Activity, phytotoxicity rating AMARE ([18]; Rate 63 g ai/ha) | Post-emerge Herbicidal Activity, phytotoxicity rating ABUTH ([20]; Rate 63 g ai/ha)

C#CCOC(=O)C(Cl)Cc1c(OC)c(Cl)cc(F)c1-n1c(=O)cc(C(F)(F)F)n(C)c1=O (single isomer, unassigned) [14-19]
100: Post-emerge Herbicidal Activity, phytotoxicity rating DIGSA ([13]; Rate 63 g ai/ha) | Post-emerge Herbicidal Activity, phytotoxicity rating DIGSA ([13]; Rate 250 g ai/ha) | Post-emerge Herbicidal Activity, phytotoxicity rating CHEAL ([16]; Rate 250 g ai/ha) | Post-emerge Herbicidal Activity, phytotoxicity rating ECHCG ([17]; Rate 63 g ai/ha) | Post-emerge Herbicidal Activity, phytotoxicity rating ECHCG ([17]; Rate 250 g ai/ha) | Post-emerge Herbicidal Activity, phytotoxicity rating AMARE ([18]; Rate 250 g ai/ha) | Post-emerge Herbicidal Activity, phytotoxicity rating ABUTH ([20]; Rate 250 g ai/ha)
60: Post-emerge Herbicidal Activity, phytotoxicity rating ABUTH ([20]; Rate 63 g ai/ha)
40: Post-emerge Herbicidal Activity, phytotoxicity rating CASOB ([14]; Rate 63 g ai/ha) | Post-emerge phytotoxicity rating CORN (crop damage) ([21]; Rate 250 g ai/ha)
50: Pre-emerge herbicidal activity, phytotoxicity rating ABUTH ([8]; 250 g ai/ha)
80: Pre-emerge herbicidal activity, phytotoxicity rating DIGSA ([2]; 250 g ai/ha) | Pre-emerge herbicidal activity, phytotoxicity rating CHEAL ([5]; 250 g ai/ha)
70: Post-emerge Herbicidal Activity, phytotoxicity rating CASOB ([14]; Rate 250 g ai/ha)
20: Post-emerge phytotoxicity rating RICE (crop damage) ([22]; Rate 250 g ai/ha)
30: Post-emerge Herbicidal Activity, phytotoxicity rating SETVI ([12]; Rate 250 g ai/ha) | Post-emerge Herbicidal Activity, phytotoxicity rating IPOHE ([15]; Rate 63 g ai/ha)
90: Pre-emerge herbicidal activity, phytotoxicity rating AMARE ([9]; 250 g ai/ha) | Post-emerge Herbicidal Activity, phytotoxicity rating IPOHE ([15]; Rate 250 g ai/ha) | Post-emerge Herbicidal Activity, phytotoxicity rating CHEAL ([16]; Rate 63 g ai/ha) | Post-emerge Herbicidal Activity, phytotoxicity rating AMARE ([18]; Rate 63 g ai/ha)
0: Pre-emerge herbicidal activity, phytotoxicity rating SETVI ([1]; 63 g ai/ha) | Pre-emerge herbicidal activity, phytotoxicity rating SETVI ([1]; 250 g ai/ha) | Pre-emerge herbicidal activity, phytotoxicity rating DIGSA ([2]; 63 g ai/ha) | Pre-emerge herbicidal activity, phytotoxicity rating CASOB ([3]; 63 g ai/ha) | Pre-emerge herbicidal activity, phytotoxicity rating CASOB ([3]; 250 g ai/ha) | Pre-emerge herbicidal activity, phytotoxicity rating IPOHE ([4]; 63 g ai/ha) | Pre-emerge herbicidal activity, phytotoxicity rating IPOHE ([4]; 250 g ai/ha) | Pre-emerge herbicidal activity, phytotoxicity rating CHEAL ([5]; 63 g ai/ha) | Pre-emerge herbicidal activity, phytotoxicity rating ECHCG ([6]; 63 g ai/ha) | Pre-emerge herbicidal activity, phytotoxicity rating ECHCG ([6]; 250 g ai/ha) | Pre-emerge herbicidal activity, phytotoxicity rating SORHA ([7]; 63 g ai/ha) | Pre-emerge herbicidal activity, phytotoxicity rating SORHA ([7]; 250 g ai/ha) | Pre-emerge herbicidal activity, phytotoxicity rating ABUTH ([8]; 63 g ai/ha) | Pre-emerge herbicidal activity, phytotoxicity rating AMARE ([9]; 63 g ai/ha) | Pre-emerge phytotoxicity rating, crop damage CORN ([10]; 63 g ai/ha) | Pre-emerge phytotoxicity rating, crop damage CORN ([10]; 250 g ai/ha) | Pre-emerge phytotoxicity rating, crop damage RICE ([11]; 63 g ai/ha) | Pre-emerge phytotoxicity rating, crop damage RICE ([11]; 250 g ai/ha) | Post-emerge Herbicidal Activity, phytotoxicity rating SETVI ([12]; Rate 63 g ai/ha) | Post-emerge Herbicidal Activity, phytotoxicity rating SORHA ([19]; Rate 63 g ai/ha) | Post-emerge Herbicidal Activity, phytotoxicity rating SORHA ([19]; Rate 250 g ai/ha) | Post-emerge phytotoxicity rating CORN (crop damage) ([21]; Rate 63 g ai/ha) | Post-emerge phytotoxicity rating RICE (crop damage) ([22]; Rate 63 g ai/ha)
